We go through 19 compounds from patent publication US10808007B2, “Desacetoxytubulysin H and analogs thereof” (WILLIAM MARSH RICE UNIVERSITY, priority 2015, dated 2020).

Holding throughout (assay type): cell-based
Assay [1] relates to MES SA DX (multidrug resistant uterine sarcoma cells). Description: Cytotoxic assay (CellTiter-Glo, 72 h), MES SA DX. As to conditions: Homo sapiens. For orientation: In ATP-based viability assays light output follows the ATP content of the culture.
For assay [2], the system named is HEK 293T (human embryonic kidney cells). Description: Cytotoxic assay (CellTiter-Glo, 72 h), HEK 293T.
Assay [3] deals with MES SA (uterine sarcoma cells). Description: Cytotoxic assay (CellTiter-Glo, 72 h), MES SA.
Where [4] appears, read: Homo sapiens, HEK-293T, 72 h, read-out: IC50 HEK 293T.
The mark [5] stands for this setting: Homo sapiens, MES-SA, 72 h, read-out: IC50 MES SA.
[6] abbreviates: Homo sapiens, HEK-293T, read-out: HEK 293T IC50 (nM).
The mark [7] stands for this setting: Homo sapiens, MES-SA, read-out: MES SA IC50 (nM).

Read-outs that look alike come from different tables or passages of the source.

As usually defined, the IC50 is the concentration needed to halve the response being measured. On to `CC[C@H](C)[C@H](NC(=O)[C@H]1CCCCN1C)C(=O)N(C)[C@H](CCc1nc(C(=O)N[C@@H](Cc2ccccc2)C[C@H](C)C(=O)OC)cs1)C(C)C` [PTb-D42, Methyl(2S,4R)-4-(2-((R)-3-((2S,3S)—N,3-dimethyl-2-((R)-1-methylpiperidine-2-carboxamido)pentanamido)-4-methylpentyl)thiazole-4-carboxamido)-2-methyl-5-phenylpentanoate], for which the IC50 in assay [1], in assay [2] (setting [4]) and in assay [3] (setting [5]) was greater than 1000 nM in each case.
Consider `CC[C@H](C)[C@H](NC(=O)[C@H]1CCCCN1C)C(=O)N(C)[C@H](CCc1nc(C(=O)N[C@@H](Cc2ccccc2)C[C@H](C)C(=O)O)cs1)C(C)C` [PTb-D43, pretubulysin D, reference compound], for which the IC50 in assay [1] is greater than 1000 nM; in assay [2] (setting [4]) it was 109 nM; in assay [3] (setting [5]) it was 409 nM.
As to `CCCCN1CCCC[C@@H]1C(=O)N[C@H](C(=O)N(C)[C@H](CCc1nc(C(=O)N[C@@H](Cc2ccccc2)C[C@H](C)C(=O)OC)cs1)C(C)C)[C@@H](C)CC` [PTb-D49, Methyl(2S,4R)-4-(2-((R)-3-((2S,3S)-2-((R)-1-butylpiperidine-2-carboxamido)-N,3-dimethylpentanamido)-4-methylpentyl)thiazole-4-carboxamido)-2-methyl-5-phenylpentanoate], the IC50 in assay [2] (setting [6]) and in assay [3] (setting [7]) was greater than 100 nM each time.
Regarding `COC(=O)[C@@H](C)C[C@H](Cc1ccccc1)NC(=O)c1csc(CC[C@H](C(C)C)N(C)C(=O)[C@@H](NC(=O)[C@H]2CCCCN2C)C(C)C)n1` [PTb-D50, Methyl(2S,4R)-4-(2-((R)-3-((S)—N,3-dimethyl-2-((R)-1-methylpiperidine-2-carboxamido)butanamido)-4-methylpentyl)thiazole-4-carboxamido)-2-methyl-5-phenylpentanoate], the IC50 in assay [2] (setting [6]) and in assay [3] (setting [7]) was greater than 100 nM each time.
As for `CCCCN1CCCC[C@@H]1C(=O)N[C@H](C(=O)N(C)[C@H](CCc1nc(C(=O)N[C@@H](Cc2ccccc2)C[C@H](C)C(=O)OC)cs1)C(C)C)C(C)C` [PTb-D51, Methyl(2S,4R)-4-(2-((R)-3-((S)-2-((R)-1-butylpiperidine-2-carboxamido)-N,3-dimethylbutanamido)-4-methylpentyl)thiazole-4-carboxamido)-2-methyl-5-phenylpentanoate], the IC50 in assay [2] (setting [6]) and in assay [3] (setting [7]) was greater than 100 nM each time.
Take `CC[C@H](C)[C@H](NC(=O)[C@H]1CCCCN1C)C(=O)N(C)[C@H](C[C@@H](OC(C)=O)c1nc(C(=O)NC23C4C5C2C2C3C4C52C(=O)OC)cs1)C(C)C` (stereo partly drawn) [Tb1l]: the IC50 is 0.26 nM in assay [2] (HEK 293T, read-out: IC50 HEK 293T) and 0.84 nM in assay [3] (MES SA, read-out: IC50 MES SA).
On to `COC(=O)[C@H](Cc1ccccc1)NC(=O)c1csc([C@@H](C[C@H](C(C)C)N(C)C(=O)[C@@H](NC(=O)[C@H]2CCCCN2C)C2CC2)OC(C)=O)n1` [Tb24, Methyl(2-((1R,3R)-1-acetoxy-3-((S)-2-cyclopropyl-N-methyl-2-((R)-1-methylpiperidine-2-carboxam-ido)acetamido)-4-methylpentyl)thiazole-4-carbonyl)-L-phenylalaninate], for which the IC50 in assay [1] is greater than 100 nM; in assay [2] (setting [4]), 9.69 nM; in assay [3] (setting [5]) it was 13.1 nM.
As for `COC(=O)[C@@H](C)C[C@H](Cc1ccccc1)NC(=O)c1csc([C@@H](C[C@H](C(C)C)N(C)C(=O)[C@@H](NC(=O)[C@H]2CCCN2C)C2CC2)OC(C)=O)n1` [Tb26, (2S,4R)-Methyl 4-(2-((1R,3R)-1-acetoxy-3-((S)-2-cyclopropyl-N-methyl-2-((R)-1-methylpyrrolidine-2-carboxamido)acetamido)-4-methylpentyl)thiazole-4-carboxamido)-2methyl-5-phenylpentanoate], the IC50 in assay [1] is greater than 100 nM; in assay [2] (setting [4]), 0.12 nM; in assay [2] (Homo sapiens, HEK-293T, read-out: IC50 HEK 293T), 0.12 nM; in assay [3] (setting [5]) it was 0.2 nM; in assay [3] (Homo sapiens, MES-SA, read-out: IC50 MES SA), 0.2 nM.
Consider `COC(=O)[C@@H](C)C[C@H](Cc1ccccc1)NC(=O)c1csc([C@@H](C[C@H](C(C)C)N(C)C(=O)C2(NC(=O)[C@H]3CCCCN3C)CC2)OC(C)=O)n1` [Tb27, (2S,4R)-Methyl 4-(2-((1R,3R)-1-acetoxy-4-methyl-3-(N-methyl-1-((R)-1-methylpiperidine-2-carboxamido)cyclopropanecarboxamido)pentyl)thiazole-4-carboxamido)-2-methyl-5-phenylpentanoate], for which the IC50 in assay [1] was greater than 100 nM; in assay [2] (setting [4]), 1.96 nM; in assay [3] (setting [5]), 2.46 nM.
As for `COC(=O)[C@@H](C)C[C@H](Cc1ccccc1)NC(=O)c1csc([C@@H](C[C@H](C(C)C)N(C)C(=O)C2(NC(=O)[C@H]3CCCCN3C)CCCC2)OC(C)=O)n1` [Tb-52, Methyl (2S,4R)-4-(2-((1R,3R)-1-acetoxy-4-methyl-3-(N-methyl-1-((R)-1-methylpiperidine-2-carboxa-mido)cyclopentane-1-carboxamido)pentyl)thiazole-4-carboxamido)-2-methyl-5-phenylpentanoate], the IC50 in assay [2] (setting [6]) is 5.78 nM; in assay [3] (setting [7]) it was 7.18 nM.
As to `CC[C@H](C)[C@H](NC(=O)[C@H]1CCCCN1C)C(=O)N[C@H](C[C@@H](OC(C)=O)c1nc(C(=O)N[C@@H](Cc2ccccc2)C[C@H](C)C(=O)OC)cs1)C(C)C` [Tb-53, (2S,4R)-Methyl 4-(2-((1R,3R)-1-acetoxy-4-methyl-3-((2S,3S)-3-methyl-2-((R)-1-methylpiperidine-2-carboxamido)pentanamido)pentyl)thiazole-4-carboxamido)-2-methyl-5-phenyl pentanoate], the figures for the IC50 in assay [2] (setting [6]) and in assay [3] (setting [7]) were 0.56 nM and 0.92 nM, respectively.
In the case of `CC[C@H](C)[C@H](NC(=O)[C@H]1CCCCN1C)C(=O)N[C@H](C[C@@H](OC(C)=O)c1nc(C(=O)N[C@@H](Cc2ccccc2)C[C@H](C)C(=O)O)cs1)C(C)C` [Tb-54, (2S,4R)-4-(2-((1R,3R)-1-Acetoxy-4-methyl-3-((2S,3S)-3-methyl-2-((R)-1-methylpiperidine-2-carboxamido)pentanamido)pentyl)thiazole-4-carboxamido)-2-methyl-5-phenylpentanoic Acid], the IC50 in assay [2] (Homo sapiens, HEK 293T, Table 3, read-out: HEK 293T IC50) stood at 0.73 nM; in assay [3] (Homo sapiens, MES SA, Table 3, read-out: MES SA IC50), 6.21 nM.
In the case of `COC(=O)C12CC(NC(=O)c3csc([C@@H](C[C@H](C(C)C)N(C)C(=O)[C@@H](NC(=O)[C@H]4CCCCN4C)C(C)C)OC(C)=O)n3)(C1)C2` [Tb-55, Methyl 3-(2-((1R,3R)-1-acetoxy-3-((S)—N,3-dimethyl-2-((R)-1-methylpiperidine-2-carboxamido)butanamido)-4-methylpentyl)thiazole-4-carboxamido)bicyclo[1.1.1]pentane-1-carboxylate], the IC50 was 0.35 nM in assay [2] (setting [6]) and 0.93 nM in assay [3] (setting [7]).
With `COC(=O)CC12CC(NC(=O)c3csc([C@@H](C[C@H](C(C)C)N(C)C(=O)[C@@H](NC(=O)[C@H]4CCCCN4C)C(C)C)OC(C)=O)n3)(C1)C2` [Tb-56, Methyl 2-(3-(2-((1R,3R)-1-acetoxy-3-((S)—N,3-dimethyl-2-((R)-1-methylpiperidine-2-carboxamido)butanamido)-4-methylpentyl)thiazole-4-carboxamido)bicyclo[1.1.1]pentan-1-yl)], the IC50 in assay [2] (setting [6]) was 1.79 nM; in assay [3] (setting [7]) it was roughly 2.73 nM.
For `COC(=O)[C@@H](C)C[C@H](Cc1ccc(F)cc1)NC(=O)c1csc([C@@H](C[C@H](C(C)C)N(C)C(=O)[C@@H](NC(=O)[C@H]2CCCCN2C)C2CC2)OC(C)=O)n1` [Tb-57, Methyl (2S,4R)-4-(2-((1R,3R)-1-acetoxy-3-((S)-2-cyclopropyl-N-methyl-2-((R)-1-methylpiperidine-2-carboxamido)acetamido)-4-methylpentyl)thiazole-4-carboxamido)-5-(4-fluorophenyl)-2-methylpentanoate] the same measures were roughly 105 nM and roughly 89.3 nM.
For `COC(=O)[C@H]1CC[C@H](NC(=O)c2csc([C@@H](C[C@H](C(C)C)N(C)C(=O)[C@@H](NC(=O)[C@H]3CCCCN3C)C(C)C)OC(C)=O)n2)CC1` [Tb-58, Methyl (1R,4r)-4-(2-((1R,3R)-1-acetoxy-3-((S)—N,3-dimethyl-2-((R)-1-methylpiperidine-2-carboxamido)butanamido)-4-methylpentyl)thiazole-4-carboxamido)cyclohexane-1-carboxylate] the same measures were 3.83 nM and 6.16 nM.
Regarding `CC(=O)O[C@H](C[C@H](C(C)C)N(C)C(=O)[C@@H](NC(=O)[C@H]1CCCCN1C)C(C)C)c1nc(C(=O)N[C@H]2CC[C@H](C(=O)O)CC2)cs1` [Tb-59, (1R,4r)-4-(2-((1R,3R)-1-Acetoxy-3-((S)—N,3-dimethyl-2-((R)-1-methylpiperidine-2-carboxamido)butanamido)-4-methylpentyl)thiazole-4-carboxamido)cyclohexane-1-carboxylic Acid], the IC50 in assay [2] (setting [6]) and in assay [3] (setting [7]) was greater than 100 nM throughout.
`CCCCN1CCCC[C@@H]1C(=O)N[C@H](C(=O)N(C)[C@H](C[C@@H](OC(C)=O)c1nc(C(=O)N[C@H]2CC[C@H](C(=O)OC)CC2)cs1)C(C)C)C(C)C` [Tb-60, Methyl (1R,4r)-4-(2-((1R,3R)-1-acetoxy-3-((S)-2-((R)-1-butylpiperidine-2-carboxamido)-N,3-dimethylbutanamido)-4-methylpentyl)thiazole-4-carboxamido)cyclohexane-1-carboxylate]: the IC50 in assay [2] (setting [6]) and in assay [3] (setting [7]) was greater than 100 nM each time.
Consider `CCCCN1CCCC[C@@H]1C(=O)N[C@H](C(=O)N(C)[C@H](C[C@@H](OC(C)=O)c1nc(C(=O)N[C@H]2CC[C@H](C(=O)O)CC2)cs1)C(C)C)C(C)C` [Tb-61], for which the IC50 in assay [2] (setting [6]) and in assay [3] (setting [7]) was greater than 100 nM throughout.
